In paper PMC8406774, “A Comparison of Two Monoterpenoid Synthases Reveals Molecular Mechanisms Associated With the Difference of Bioactive Monoterpenoids Between Amomum villosum and Amomum longiligulare” (Frontiers in Plant Science, 2021):

What was measured:
Experiment in all cases: GC-MS of terpene products after phosphatase treatment
Format in all cases: biochemical
AvTPS2 = target: T1, AvTPS2 (Wurfbainia villosa, UniProt A0A7L7TAQ2); settings: 30 C, 1 h; then alkaline phosphatase 37 C
T1 construct: gene TPS2; full ORF 587 residues; predicted 34-residue N-terminal plastid transit peptide removed
T1 sequence (A0A7L7TAQ2 35-587): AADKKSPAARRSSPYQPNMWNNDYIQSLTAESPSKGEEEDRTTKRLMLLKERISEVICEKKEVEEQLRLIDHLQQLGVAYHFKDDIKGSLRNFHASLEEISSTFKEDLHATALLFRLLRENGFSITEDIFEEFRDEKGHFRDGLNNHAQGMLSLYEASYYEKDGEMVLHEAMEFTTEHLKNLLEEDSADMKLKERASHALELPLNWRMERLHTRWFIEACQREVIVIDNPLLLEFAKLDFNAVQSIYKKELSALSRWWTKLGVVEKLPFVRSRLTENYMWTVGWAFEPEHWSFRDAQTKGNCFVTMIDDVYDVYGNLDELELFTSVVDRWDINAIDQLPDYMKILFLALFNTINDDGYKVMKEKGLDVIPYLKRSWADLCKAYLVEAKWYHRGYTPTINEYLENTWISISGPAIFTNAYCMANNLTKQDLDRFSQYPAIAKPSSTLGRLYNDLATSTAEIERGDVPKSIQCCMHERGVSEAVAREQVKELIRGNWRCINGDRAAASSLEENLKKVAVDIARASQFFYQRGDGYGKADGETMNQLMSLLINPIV

AlTPS3 [1] = target: T2, AlTPS3 (Wurfbainia longiligularis, UniProt A0A7L7T473); settings: 30 C, 1 h; then alkaline phosphatase 37 C
T2 construct: gene TPS3; ORF 1791 bp, printed as 597 residues; predicted 47-residue N-terminal plastid transit peptide removed
T2 sequence (A0A7L7T473 48-597): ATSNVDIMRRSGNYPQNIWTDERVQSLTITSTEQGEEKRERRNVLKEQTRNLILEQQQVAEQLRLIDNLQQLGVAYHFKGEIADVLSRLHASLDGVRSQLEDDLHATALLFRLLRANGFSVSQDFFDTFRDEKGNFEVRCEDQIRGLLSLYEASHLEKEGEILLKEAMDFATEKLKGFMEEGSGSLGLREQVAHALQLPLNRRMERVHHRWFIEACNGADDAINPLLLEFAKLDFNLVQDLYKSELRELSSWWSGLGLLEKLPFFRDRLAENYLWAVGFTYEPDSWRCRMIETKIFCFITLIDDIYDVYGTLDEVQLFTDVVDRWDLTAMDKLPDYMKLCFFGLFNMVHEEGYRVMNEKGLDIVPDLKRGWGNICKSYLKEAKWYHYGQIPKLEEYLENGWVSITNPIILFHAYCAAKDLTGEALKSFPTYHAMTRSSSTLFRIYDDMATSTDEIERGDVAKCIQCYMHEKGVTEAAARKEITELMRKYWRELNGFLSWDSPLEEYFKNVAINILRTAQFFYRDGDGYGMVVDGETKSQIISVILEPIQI

AvBPPS = target: T3, AvBPPS (Wurfbainia villosa, UniProt A0A2Z4K4Q8); settings: 30 C, 1 h; then alkaline phosphatase 37 C
T3 construct: gene TPS3; full length 596 residues; recombinant, cloned in the authors' earlier work (Wang et al. 2018); truncation and tag not restated here

AlTPS3 [2] = target: T4, AlTPS3 (Wurfbainia longiligularis, UniProt A0A7L7T473, A496G); settings: overnight incubation with GPP; conserved DTE motif
T4 construct: gene TPS3; ORF 1791 bp, printed as 597 residues; predicted 47-residue N-terminal plastid transit peptide removed

AlTPS2 = target: T5, AlTPS2 (Wurfbainia longiligularis, UniProt A0A7L7T499); settings: 30 C, 1 h; then alkaline phosphatase 37 C
T5 construct: gene TPS2; full ORF 587 residues; predicted 34-residue N-terminal plastid transit peptide removed; MBP fusion (pMAL-c5X), E. coli Rosetta (DE3), about 108 kDa, tag kept
T5 sequence (A0A7L7T499 35-587): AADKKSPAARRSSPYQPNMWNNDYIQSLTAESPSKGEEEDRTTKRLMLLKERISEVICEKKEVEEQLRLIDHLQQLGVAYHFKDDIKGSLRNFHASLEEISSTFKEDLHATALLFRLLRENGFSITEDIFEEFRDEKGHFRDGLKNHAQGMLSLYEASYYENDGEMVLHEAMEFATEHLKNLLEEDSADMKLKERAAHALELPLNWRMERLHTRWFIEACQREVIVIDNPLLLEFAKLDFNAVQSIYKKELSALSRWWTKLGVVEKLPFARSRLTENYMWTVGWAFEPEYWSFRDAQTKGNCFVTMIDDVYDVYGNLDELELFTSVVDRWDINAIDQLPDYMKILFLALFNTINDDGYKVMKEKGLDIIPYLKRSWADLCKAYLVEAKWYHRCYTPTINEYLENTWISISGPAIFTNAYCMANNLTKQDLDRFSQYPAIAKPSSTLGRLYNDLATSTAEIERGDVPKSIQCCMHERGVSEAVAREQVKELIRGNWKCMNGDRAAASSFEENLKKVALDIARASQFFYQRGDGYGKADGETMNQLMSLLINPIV

T3 sequence (A0A2Z4K4Q8 entry or part of it): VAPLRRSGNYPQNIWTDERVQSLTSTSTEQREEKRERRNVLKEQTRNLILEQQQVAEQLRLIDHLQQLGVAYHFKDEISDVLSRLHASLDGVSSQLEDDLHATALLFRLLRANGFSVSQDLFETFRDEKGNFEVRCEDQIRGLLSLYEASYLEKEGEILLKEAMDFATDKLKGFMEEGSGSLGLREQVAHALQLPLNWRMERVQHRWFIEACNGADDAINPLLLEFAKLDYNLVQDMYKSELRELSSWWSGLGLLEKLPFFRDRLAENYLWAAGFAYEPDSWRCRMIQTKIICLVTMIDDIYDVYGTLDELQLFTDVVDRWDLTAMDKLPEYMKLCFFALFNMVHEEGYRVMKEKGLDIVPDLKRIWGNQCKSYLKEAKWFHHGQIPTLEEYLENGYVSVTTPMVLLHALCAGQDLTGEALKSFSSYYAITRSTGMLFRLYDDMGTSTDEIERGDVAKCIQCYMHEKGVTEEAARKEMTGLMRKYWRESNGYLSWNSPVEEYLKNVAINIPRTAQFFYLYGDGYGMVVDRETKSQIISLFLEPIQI
T4 sequence (A0A7L7T473 entry or part of it A496G): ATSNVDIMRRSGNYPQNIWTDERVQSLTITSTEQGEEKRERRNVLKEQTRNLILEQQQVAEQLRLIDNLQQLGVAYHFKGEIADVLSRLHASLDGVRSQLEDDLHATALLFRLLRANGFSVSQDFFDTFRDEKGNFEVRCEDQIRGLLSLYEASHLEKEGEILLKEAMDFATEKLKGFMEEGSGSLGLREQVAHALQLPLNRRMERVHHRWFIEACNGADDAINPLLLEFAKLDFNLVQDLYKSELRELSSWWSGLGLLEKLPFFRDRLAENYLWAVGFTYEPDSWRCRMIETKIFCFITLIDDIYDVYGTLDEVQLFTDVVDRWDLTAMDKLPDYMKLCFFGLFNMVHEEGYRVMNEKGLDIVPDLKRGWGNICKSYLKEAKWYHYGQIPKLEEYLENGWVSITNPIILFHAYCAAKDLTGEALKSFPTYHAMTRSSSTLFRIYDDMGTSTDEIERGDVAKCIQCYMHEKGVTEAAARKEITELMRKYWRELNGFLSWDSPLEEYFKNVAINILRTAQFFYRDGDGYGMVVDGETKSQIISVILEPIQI

## CC(C)=CCC/C(C)=C/COP(=O)(O)OP(=O)(O)O [GPP]
AvTPS2
  GC-MS of terpene products after phosphatase treatment: When the substrate was GPP, AlTPS2, and AvTPS2 produced the monoterpene product linalool
AlTPS3 [1]
  GC-MS of terpene products after phosphatase treatment: AlTPS3 recombinant protein catalyzed GPP to produce camphene as the major product
AvBPPS
  GC-MS of terpene products after phosphatase treatment: reaction products generated by recombinant protein AlTPS3 and AvBPPS from GPP
AlTPS3 [2]
  GC-MS of terpene products after phosphatase treatment: the site-directed mutant of AlTPS3-A496G and AvBPPS-G495A were constructed, and the overnight reaction with GPP
AlTPS2
  GC-MS of terpene products after phosphatase treatment: When the substrate was GPP, AlTPS2, and AvTPS2 produced the monoterpene product linalool
